Values quoted from earlier work in US20070098643A1, “Oligomers of gadolinium chelates, their applicationascontrast products in magnetic resonance imaging and their synthesis intermediates” (priority 2002, published 2007).

Columns and labels:
[1] = in vivo
[2] = system: benign and malignant breast tumors; details: in this model; Daldrup-Link et al. 2000

C5/C0 ratio [1]: 21% | distribution volume [1]: 130 mL/kg | plasma half-life [1]: 37 min | total plasma clearance [1]: 8.1 mL/min/kg
Substance: Gadomer-17
differentiation of benign from malignant tumors in MRI [2]: does not allow such a differentiation
